PubChem BioAssay (NCI)
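Following 48 hours of exposure in 96-well plates, responses at five concentrations were used to interpolate endpoints linearly. Here, GI50 denotes the concentration required for 50% inhibition of growth. Definition used: TGI = concentration required for complete inhibition of growth.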

Legend:
Assay in all cases: growth of human tumour cells (NCI), 48 h
[1] = tested on: A498 renal
[2] = tested on: K-562 leukemia
[3] = tested on: KM12 colon
[4] = tested on: RPMI-8226 leukemia
[5] = tested on: RXF 393 renal
[6] = tested on: SNB-19 CNS
[7] = tested on: CAKI-1 renal
[8] = tested on: DU-145 prostate

Structure (SMILES)	TGI [1] [µM]	TGI [2] [µM]	TGI [3] [µM]	TGI [4] [µM]	TGI [5] [µM]	TGI [6] [µM]	TGI [7] [µM]	GI50 [1] [µM]	GI50 [7] [µM]	GI50 [8] [µM]	TGI [8] [µM]	GI50 [2] [µM]	GI50 [3] [µM]	GI50 [4] [µM]	GI50 [6] [µM]	GI50 [5] [µM]
C[C@@H]1OC(=O)N2CCCC(=C3SCCCS3)C12 (stereo not given in full)	> 100	> 100	> 100	> 100	> 100	> 100										
O=[N+]([O-])c1ccc(C=NC2CCCCC2)cc1	> 100	> 100	> 100		> 100	> 100	> 100									
CN(C)CCNC(=O)c1cccc2ccc(-c3ccncc3)nc12	4.34	9.56	54.3		7.85	9.5	5.21									
Cc1cc2c(cc1Cl)SC1=NN(C)S(=O)N1S2(=O)=O (stereo not given)	> 100	> 100	> 100	> 100		> 100	> 100	99.5	> 100	> 100	> 100	> 100	> 100	> 100	> 100	
COC1(OC)CC2OC1C1N=NN(C(=O)OC(C)(C)C)C21 (stereo not given)	> 100	> 100	> 100	> 100	> 100		> 100									
CC(SC(=S)N1CCOCC1)c1cc2oc(=O)n(C)c2cc1Cl (stereo not given)		> 100	> 100	> 100	> 100	> 100	> 100									
CCC[CH2][Sn]1([CH2]CCC)[O]C(=O)CN=Cc2c(ccc3ccccc23)[O]1	> 100	1.09	2.28	0.529	0.318	0.526	0.593	1.55	0.0629			0.245	0.888	0.154	0.229	0.136
O=C(O)C(CS)Nc1c2ccccc2nc2ccccc12 (stereo not given)		> 100	> 100	> 100	> 100	> 100	> 100									
COc1ccc(NC(=O)CC(=O)N/N=C/c2ccc(N(CCC#N)S(C)(=O)=O)cc2)cc1	> 100	> 100	> 100	> 100	> 100		> 100									
CC(C)(C)c1cc(CCC(=O)Nc2ccc(Cl)cc2)nc(NC#N)n1		> 100	> 100			> 100	> 100									
Cc1ccc(-c2nc3nc(-c4ccccc4)nc(N4CCCNCC4)c3o2)cc1	3.13	1.86	3.41		3.32	3.11	3.22	1.53	1.73	1.82	3.3	0.442	1.77		1.63	1.69
C/C(O)=C(\N=O)C(=O)Nc1ccc(Cl)cc1Cl	> 100	> 100	> 100	> 100	> 100	> 100	> 100									
